Tests used:
[1] = test system: antibodies raised from SUA-BTG; assay: Biochip-based competitive immunoassay (salicyluric acid dose-response curve and cross-reactivity profile); assay type: binding, sheep; conditions: Concentration 350 μg/ml
Description: In order to generate polyclonal antisera, the immunogen (prepared in Example 2) was mixed with primary complete Freund's Adjuvant (Sigma) and injected into a host sheep to provide target-specific polyclonal antisera. On a monthly basis the immunogen (with incomplete Freund's Adjuvant) was injected into the sheep. The host animal was bled to yield a suitable volume of specific antiserum. IgG was then extracted from the antisera via Caprylic acid/ammonium sulphate precipitation of immunoglobulin.
Nine calibrator solutions of salicyluric acid (0-5.00 μg/ml) were prepared in calibrator buffer for standard curves. Cross-reactants (aspirin, 4-aminosalcylic acid, benzoic acid, diflusinal, gentisic acid, gentisuric acid, ibuprofen, methyl salicylate, salicylic acid and salsalate) were diluted in calibrator buffer (0-350 μg/ml). Assay diluent (155 μl), sample/antigen (25 μl), and diluted conjugate (Hapten 1-HRP 120 μl) were added to biochips wells. Biochips were incubated for 30 min at 30° C. in a thermoshaker at 370 rpm, and then washed with TBST buffer (2 quick washes followed by 4 washes with 2 min intervals). Biochips were developed with 250 μl luminol plus: peroxide (1:1) for 2 min in the dark, and were then imaged on the Randox Investigator (2×60 sec images).

[2] = cited from earlier work
[3] = cited from earlier work; for share of excreted product: excretion after aspirin ingestion; for kinetics of formation: hepatic metabolism of salicylic acid
[4] = after ingestion of a therapeutic amount of aspirin

SMILES | % Cross-reactivity [1] | share of excreted product [3] | kinetics of formation [3] | other results
Nc1ccc(C(=O)O)c(O)c1 [4-aminosalicylic acid] | <<1.00% |  |  | 
CC(=O)Oc1ccccc1C(=O)O [Aspirin, 2-acetoxybenzoic acid] | <<1.00% |  |  | moderately toxic concentration (MTC), aspirin equivalent ([2]; Chyka et al (2007)): 6.5 g; toxic concentration, aspirin ingestion ([2]; general literature): > 300 mg/kg; concentrations considered to be toxic ([2]; serum): exceeding 300 mg/l; therapeutic concentration range in serum ([2]; serum): 150 to 300 mg/L; time until only trace levels remain [3, 4]: ≤ 2 h
O=C(O)c1ccccc1 [Benzoic acid] | <<1.00% |  |  | 
O=C(O)c1cc(-c2ccc(F)cc2F)ccc1O [Diflusinal] | <<1.00% |  |  | 
O=C(O)c1cc(O)ccc1O [Gentisic acid] | <<1.00% | approximately 1% | first-order kinetics | 
O=C(O)CNC(=O)c1cc(O)ccc1O [Gentisuric acid] | <<1.00% |  |  | 
O=C(O)CNC(=O)c1ccccc1 [Hippuric acid] | <<1.00% |  |  | 
CC(C)Cc1ccc(C(C)C(=O)O)cc1 (stereo not drawn) [Ibuprofen] | <<1.00% |  |  | 
COC(=O)c1ccccc1O [Methyl salicylate] | <<1.00% |  |  | 
O=C(O)c1ccccc1O [Salicylic acid, salicylic acid] | <<1.00% | approximately 10% |  | therapeutic level in blood ([2]; blood of a healthy adult): 150 to 300 mg/L; time of peak levels [3, 4]: 1 to 2 h; half-life ([3]; in serum): approximately 6 hours
O=C(O)CNC(=O)c1ccccc1O [Salicyluric acid, salicyluric acid] |  | approximately 75% | Michaelis-Menten or zero-order kinetics | 
O=C(O[C@@H]1O[C@H](C(=O)O)[C@@H](O)[C@H](O)[C@H]1O)c1ccccc1O [salicylacyl glucuronide] |  | approximately 5% | first-order kinetics | 
O=C(O)c1ccccc1O[C@@H]1O[C@H](C(=O)O)[C@@H](O)[C@H](O)[C@H]1O [salicylphenolic glucuronide] |  | approximately 8% | Michaelis-Menten or zero-order kinetics | 

Reference: US20120164756A1, “ASPIRIN ASSAY” (RANDOX LABORATORIES LIMITED, priority 2009, published 2012)
